# From patent publication US7163941B2, “Pyrido[2,3-d]pyrimidin-7-carboxylic acid derivatives, their manufacture and use as pharmaceutical agents” (Hoffmann-La Roche Inc., priority 2003, dated 2007)
# What was measured:
# [1] = molecular target: T1, Lck (p56^lck, active) (Homo sapiens, UniProt P06239); experiment: SRC-Inhibitor-Assay (time-resolved fluorescence), Lck enzyme; type: biochemical; conditions: ATP 5 μM, peptide 10 μM, enzyme 2.5 U/ml, pre-incubation 15 min at 15° C.
# T1 construct: purchased Upstate (UBI)
# T1 sequence (P06239 whole entry, species assumed): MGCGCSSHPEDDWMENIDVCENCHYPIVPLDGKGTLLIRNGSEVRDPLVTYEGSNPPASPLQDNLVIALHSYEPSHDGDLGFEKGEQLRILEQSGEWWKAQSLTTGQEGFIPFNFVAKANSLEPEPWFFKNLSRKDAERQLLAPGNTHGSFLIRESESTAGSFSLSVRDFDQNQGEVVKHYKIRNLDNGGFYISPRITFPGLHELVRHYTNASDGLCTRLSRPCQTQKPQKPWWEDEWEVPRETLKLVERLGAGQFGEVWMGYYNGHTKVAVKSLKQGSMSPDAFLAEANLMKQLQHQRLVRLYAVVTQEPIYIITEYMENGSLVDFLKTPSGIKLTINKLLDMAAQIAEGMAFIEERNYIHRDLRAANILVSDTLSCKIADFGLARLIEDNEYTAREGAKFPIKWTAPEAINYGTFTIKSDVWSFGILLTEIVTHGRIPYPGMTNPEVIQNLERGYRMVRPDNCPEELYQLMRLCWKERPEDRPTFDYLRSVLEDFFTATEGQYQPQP
# Experimental: (§1) The activity of the compounds according to this invention as inhibitors for the src-family tyrosine kinases was shown by using the following assay.
# (§2) SRC-Inhibitor-Assay Parameters:
# (§3) • Reaction mixture: • ATP 5 μM • Peptide (R+Ja133-Ro): 10 μM • Ja133-Ro 196 nM • Ro 9.8 μM • PT66 230 ng/ml • Assay buffer: 4 mM MgCl2 • 2 mM TCEP • 50 mM HEPES • 0,1% Tween 20 • pH 7.3 • Enzyme: 2.5 U/ml • Inhibitor: max. 25 μM • min. 0.42 nM Material: • Eu-labelled phosphotyrosine antibody: -for Lck Cisbio Mab PT66-K, • for Src EG&G Wallac PT66 Eu-W1024 (all commercially available). • Peptides: Ro: NH2-A-E-E-E-I-Y-G-E-F-E-A-K-K-K-K-CONH2 (SEQ ID NO: 1), and • Ja133-Ro: Ja133-G-Aminocaprylic acid-A-E-E-E-I-Y-G-E-F-E-A-K-K-K-K-CONH2 (SEQ ID NO: 2), wherein Ja133 is LightCycler-Red 640-N-hydroxy succinimide ester; • whereby both peptides were synthesized by an optimized solid phase peptide synthesis protocol (Merrifield, Fed. Proc. Fed. Amer. Soc. Exp. Biol. 21 (1962) 412) on a Zinsser SMP350 peptide synthesizer. Shortly, the peptide was assembled on 160 mg (22.8 μmol scale) of a Rink-Linker modified polystyrene solid phase by repeatedly conjugating an twenty fold excess of aminoacids each protected by temporary piperidine labile Fmoc- and permanent acid labile tert-Bu-, BOC- and Otert-Bu-groups depending on the side chain function. The substrate sequence AEEEIYGEFEAKKKK (SEQ ID NO: 1) was N-terminal additionally mounted with the spacer amino acids Aminocaprylic acid and Glycin. After cleavage of the N-terminal temporary protecting group the still attached and protected peptide was labeled with a 1.5 fold amount of LightCycler-Red 640-N-hydroxy succinimide ester (purchased by Roche Diagnostics GmbH) and triethylamine. After 3 hrs. the resin was washed with Dimethylformamide and Isopropanol until the eluates of the blue resin got colo-rless. […] The substrate was finally isolated by a preparative reverse phase HPLC purification. The purification yielded 12.2 mg RP-HPLC single peak pure blue material (lyophilisate). The identity was proven by MALDI mass spectroscopy [2720.0]. • Enzymes: Upstate Lck (p56^lck, active), Upstate Src (p60^c-src, partially purified) were purchased from UBI. • Time-resolved Fluorescence Assay: Reader: Perkin Elmer, Wallac Viktor 1420-040 multilabel counter; Liquid handling system: Beckman Coulter, Biomek 2000. ATP, Tween 20, HEPES were purchased from Roche Molecular Biochemicals, MgCl2 and MnCl2 were purchased from Merck Eurolab, TCEP was purchased from Pierce, 384 Well low volume fluorescence plates was purchased from Falcon. Assay Description:
# (§4) At first the enzyme is pre-incubated for 15 min. at 15° C. in aqueous solution with corresponding amounts of inhibitors according to this invention. Then the phosphorylation reaction is started by adding a reaction mixture, containing ATP, Peptide and PT66, and subsequent shaking. The proceeding of this reaction is immediately monitored using time resolved fluorescence spectroscopy in a suitable well plate reader.
# (§5) The IC50-values can be obtained from the reaction rates by using a non-linear curve fit (Excelfit).
# [2] = molecular target: T2, Src (p60^c-src, partially purified) (Homo sapiens, UniProt P12931); experiment: SRC-Inhibitor-Assay (time-resolved fluorescence), Src enzyme; type: biochemical; conditions: ATP 5 μM, peptide 10 μM, enzyme 2.5 U/ml, pre-incubation 15 min at 15° C.
# T2 construct: purchased Upstate (UBI)
# T2 sequence (P12931 whole entry, species assumed): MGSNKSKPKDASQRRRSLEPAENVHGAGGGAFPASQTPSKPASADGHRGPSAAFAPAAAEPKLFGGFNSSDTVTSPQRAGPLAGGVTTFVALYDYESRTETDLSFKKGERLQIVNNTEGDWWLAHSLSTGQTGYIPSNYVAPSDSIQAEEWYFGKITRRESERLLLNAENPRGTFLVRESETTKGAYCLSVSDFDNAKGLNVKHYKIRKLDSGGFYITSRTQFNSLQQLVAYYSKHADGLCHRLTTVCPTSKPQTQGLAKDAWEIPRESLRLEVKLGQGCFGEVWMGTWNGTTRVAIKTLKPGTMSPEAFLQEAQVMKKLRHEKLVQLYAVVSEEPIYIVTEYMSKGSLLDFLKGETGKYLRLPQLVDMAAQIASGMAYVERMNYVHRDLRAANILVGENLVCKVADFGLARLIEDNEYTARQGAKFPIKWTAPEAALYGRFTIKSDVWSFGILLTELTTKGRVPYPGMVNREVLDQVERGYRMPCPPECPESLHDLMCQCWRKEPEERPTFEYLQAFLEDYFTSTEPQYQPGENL
# Experimental: as §1, §2, §3, §4, §5
Compound,IC50 [1],IC50 [2]
"CC(CN(C)C)NC(=O)c1nc2nc(Nc3ccc(F)cc3)ncc2cc1-c1ccccc1Br (stereo not drawn) [Example 3-23, 6-(2-Bromo-phenyl)-2-(4-fluoro-phenylamino)-pyrido[2,3-d]pyrimidine-7-carboxylic acid (2-dimethylamino-1-methyl-ethyl)-amide]",0.573 µM,0.195 µM
"CNC(=O)CNC(=O)c1nc2nc(Nc3ccc(F)cc3)ncc2cc1-c1ccccc1Br [Example 3-24, 6-(2-Bromo-phenyl)-2-(4-fluoro-phenylamino)-pyrido[2,3-d]pyrimidine-7-carboxylic acid methylcarbamoylmethyl-amide]",0.206 µM,0.13 µM
"O=C(NCCN1CCNC1=O)c1nc2nc(Nc3ccc(F)cc3)ncc2cc1-c1ccccc1Br [Example 3-25, 6-(2-Bromo-phenyl)-2-(4-fluoro-phenylamino)-pyrido[2,3-d]pyrimidine-7-carboxylic acid[2-(2-oxo-imidazolidin-1-yl)-ethyl]-amide]",0.37 µM,0.157 µM
"O=C(NCCCN1CCCC1=O)c1nc2nc(Nc3ccc(F)cc3)ncc2cc1-c1ccccc1Br [Example 3-26, 6-(2-Bromo-phenyl)-2-(4-fluoro-phenylamino)-pyrido[2,3-d]pyrimidine-7-carboxylic acid [3-(2-oxo-pyrrolidin-1-yl)-propyl]-amide]",0.275 µM,0.197 µM
"CC(CNC(=O)c1nc2nc(Nc3ccc(F)cc3)ncc2cc1-c1ccccc1Br)N(C)C (stereo not drawn) [Example 3-27, 6-(2-Bromo-phenyl)-2-(4-fluoro-phenylamino)-pyrido[2,3-d]pyrimidine-7-carboxylic acid (2-dimethylamino-propyl)-amide]",0.129 µM,0.0239 µM
"O=C(N[C@H]1CCNC1)c1nc2nc(Nc3ccc(F)cc3)ncc2cc1-c1ccccc1Br [Example 3-28, (S)-6-(2-Bromo-phenyl)-2-(4-fluoro-phenylamino)-pyrido[2,3-d]pyrimidine-7-carboxylic acid pyrrolidin-3-ylamide]",0.0627 µM,0.0193 µM

# Next, values leading:
IC50 [1],IC50 [2],Compound
0.429 µM,0.103 µM,"O=C(N[C@@H]1CCNC1)c1nc2nc(Nc3ccc(F)cc3)ncc2cc1-c1ccccc1Br [Example 3-29, (R)-6-(2-Bromo-phenyl)-2-(4-fluoro-phenylamino)-pyrido[2,3-d]pyrimidine-7-carboxylic acid pyrrolidin-3-ylamide]"
0.151 µM,0.247 µM,"CN(C)C(=O)CNC(=O)c1nc2nc(Nc3ccc(F)cc3)ncc2cc1-c1ccccc1Br [Example 3-30, 6-(2-Bromo-phenyl)-2-(4-fluoro-phenylamino)-pyrido[2,3-d]pyrimidine-7-carboxylic acid dimethylcarbamoylmethyl-amide]"
0.1 µM,0.0428 µM,"CNCCCNC(=O)c1nc2nc(Nc3ccc(F)cc3)ncc2cc1-c1ccccc1Br [Example 3-31, 6-(2-Bromo-phenyl)-2-(4-fluoro-phenylamino)-pyrido[2,3-d]pyrimidine-7-carboxylic acid (3-methylamino-propyl)-amide]"
0.195 µM,0.117 µM,"O=C(NCCCN1CCOCC1)c1nc2nc(Nc3ccc(F)cc3)ncc2cc1-c1ccccc1Br [Example 3-32, 6-(2-Bromo-phenyl)-2-(4-fluoro-phenylamino)-pyrido[2,3-d]pyrimidine-7-carboxylic acid (3-morpholin-4-yl-propyl)-amide]"
0.0969 µM,0.0447 µM,"CN1CCCC1CCNC(=O)c1nc2nc(Nc3ccc(F)cc3)ncc2cc1-c1ccccc1Br (stereo not drawn) [Example 3-33, 6-(2-Bromo-phenyl)-2-(4-fluoro-phenylamino)-pyrido[2,3-d]pyrimidine-7-carboxylic acid [2-(1-methyl-pyrrolidin-2-yl)-ethyl]-amide]"
0.127 µM,0.0979 µM,"O=C(N[C@@H]1CCCNC1)c1nc2nc(Nc3ccc(F)cc3)ncc2cc1-c1ccccc1Br [Example 3-34, (R)-6-(2-Bromo-phenyl)-2-(4-fluoro-phenylamino)-pyrido[2,3-d]pyrimidine-7-carboxylic acid piperidin-3-ylamide]"
